Measured values published in ChEMBL document CHEMBL4665709, “Rational Avoidance of Protease Cleavage Sites and Symmetrical End-Tagging Significantly Enhances the Stability and Therapeutic Potential of Antimicrobial Peptides” (J Med Chem, 2020).
Values after ≈ are worked out from the molar mass of the structure shown. Active and inactive are the calls of the source. The rule behind the calls is not given here. Where a SMILES comes first, the peptide text is derived from it.

Tests used:
[1] = Therapeutic index, ratio of MHC for human RBC to geometric mean of peptide MIC for Enterococcus faecalis ATCC 29212; assay type: toxicity; conditions: human red blood cells (RBC), read-out: TI
[2] = Therapeutic index, ratio of MHC for human RBC to geometric mean of peptide MIC for Staphylococcus aureus 11011; assay type: toxicity; conditions: human red blood cells (RBC), read-out: TI
[3] = Therapeutic index, ratio of MHC for human RBC to geometric mean of peptide MIC for Salmonella typhimurium 7731; assay type: toxicity; conditions: human red blood cells (RBC), read-out: TI
[4] = Therapeutic index, ratio of MHC for human RBC to geometric mean of peptide MIC for Salmonella choleraesuis 503; assay type: toxicity; conditions: human red blood cells (RBC), read-out: TI
[5] = Therapeutic index, ratio of MHC for human RBC to geometric mean of peptide MIC for Escherichia coli ATCC 25922; assay type: toxicity; conditions: human red blood cells (RBC), read-out: TI
Cell membrane [6] = test: Disruption of membrane integrity in Escherichia coli ATCC 25922 assessed as induction of membrane rupture at 0.5 to 2 times MIC after 1 hr by SYTO-9/PI-staining based fluorescence microscopy
Cell membrane [7] = test: Disruption of membrane integrity in Escherichia coli ATCC 25922 assessed as induction of membrane rupture after 1 hr by PI-staining based flow cytometry analysis; assay type: subcellular
Staphylococcus aureus [8] = test: Antibacterial activity against methicillin-resistant Staphylococcus aureus 43300 after 18 to 24 hrs by CLSI-based broth microdilution method; assay type: functional; conditions: time hrs 18-24
[9] = Hemolytic activity in human RBC assessed as hemolysis at 1 to 128 uM relative to control; assay type: ADME, cell-based, Erythrocyte; conditions: human red blood cells (RBC), dose 1-128 µM, read-out: Activity
[10] = Cytotoxicity against mouse RAW264.7 cells assessed as cell viability at 128 uM by MTT assay relative to control; assay type: cell-based; conditions: read-out: Activity
Escherichia coli [11] = test: Antibacterial activity against Escherichia coli ATCC 25922 after 18 to 24 hrs in presence of 1 mM Mg2+ by CLSI-based broth microdilution method; assay type: functional; conditions: time hrs 18-24
Escherichia coli [12] = test: Antibacterial activity against Escherichia coli ATCC 25922 after 18 to 24 hrs in presence of 25% human serum by CLSI-based broth microdilution method; assay type: functional; conditions: time hrs 18-24
Escherichia coli [13] = test: Antibacterial activity against Escherichia coli ATCC 25922 after 18 to 24 hrs in presence of 100% human serum by CLSI-based broth microdilution method; assay type: functional; conditions: time hrs 18-24
Staphylococcus aureus [14] = test: Antibacterial activity against Staphylococcus aureus ATCC 29213 after 18 to 24 hrs in presence of 8 uM Zn2+ by CLSI-based broth microdilution method; assay type: functional; conditions: time hrs 18-24
Staphylococcus aureus [15] = test: Antibacterial activity against Staphylococcus aureus ATCC 29213 after 18 to 24 hrs in presence of 50% human serum by CLSI-based broth microdilution method; assay type: functional; conditions: time hrs 18-24
[16] = Stability of compound at 100 degreeC after 30 to 90 mins; assay type: physicochemical; conditions: time 30-90 min
Escherichia coli [17] = test: Antibacterial activity against Escherichia coli ATCC 25922 measured after 18 to 24 hrs in presence of chymotrypsin by CLSI-based broth microdilution method; assay type: functional, organism-based; conditions: time hrs 18-24
Escherichia coli [18] = test: Antibacterial activity against Escherichia coli 25922 measured over 40 passages; assay type: functional, organism-based; conditions: ATCC 25922
[19] = Toxicity in C57BL/6 mouse assessed as change in body weigh at 20 mg/kg, ip measured for 5 days; assay type: organism-based; conditions: in vivo, 120 h, time 5 day
[20] = Toxicity in C57BL/6 mouse assessed as effect on creatinine level at 10 mg/kg, ip measured after 5 days; assay type: organism-based; conditions: in vivo, 120 h, time 5 day
[21] = Toxicity in C57BL/6 mouse assessed as effect on blood urea nitrogen level at 10 mg/kg, ip measured after 5 days; assay type: organism-based; conditions: in vivo, 120 h, time 5 day
[22] = Toxicity in C57BL/6 mouse assessed as effect on creatinine level at 20 mg/kg, ip measured after 5 days; assay type: organism-based; conditions: in vivo, 120 h, time 5 day
Escherichia coli [23] = test: Antibacterial activity against Escherichia coli ATCC 25922 infected in C57BL/6 mouse assessed as reduction in bacterial load in kidney at 10 mg/kg, ip measured after 11 hrs (reference value: 7.59 log CFU/g); assay type: functional
Escherichia coli [24] = test: Antibacterial activity against Escherichia coli ATCC 25922 infected in C57BL/6 mouse assessed as reduction in inflammatory cell infiltration in lung at 10 mg/kg, ip measured after 11 hrs by hematoxylin and eosin staining based assay; assay type: functional, organism-based
Escherichia coli [25] = test: Antibacterial activity against Escherichia coli ATCC 25922 infected in C57BL/6 mouse assessed as reduction in bleeding in kidney at 10 mg/kg, ip measured after 11 hrs by hematoxylin and eosin staining based assay; assay type: functional, organism-based
Escherichia coli [26] = test: Antibacterial activity against Escherichia coli ATCC 25922 infected in C57BL/6 mouse assessed as reduction in IL-6 level in serum at 10 mg/kg, ip measured after 11 hrs by ELISA; assay type: functional, organism-based
Escherichia coli [27] = test: Antibacterial activity against Escherichia coli ATCC 25922 infected in C57BL/6 mouse assessed as reduction in TNF-alpha level in serum at 10 mg/kg, ip measured after 11 hrs by ELISA; assay type: functional, organism-based
RAW264.7 = test: Antiinflammatory activity in mouse RAW264.7 cells assessed as inhibition of LPS-induced IL-1beta production after 24 hrs by ELISA; assay type: functional, cell-based
[28] = Stability of compound assessed as chymotrypsin (unknown origin)-mediated drug degradation after 8 hrs by RP-HPLC analysis; assay type: ADME; conditions: human
[29] = Stability of compound assessed as pepsin (unknown origin)-mediated drug degradation after 8 hrs by RP-HPLC analysis; assay type: ADME; conditions: human
[30] = Stability of compound assessed as proteinase K (unknown origin)-mediated drug degradation after 8 hrs by SDS-PAGE analysis; assay type: ADME; conditions: human
Lipopolysaccharide (LPS) = test: Displacement of BODIPY-TR-cadaverine from Escherichia coli O111:B4 LPS after 4 hrs by fluorescence assay
Cell membrane [31] = test: Induction of outer membrane permeabilization in Escherichia coli ATCC 25922 after 30 mins by NPN-dye based assay
Cell membrane [32] = test: Induction of cytoplasmic membrane depolarization in Escherichia coli ATCC 25922 at 0.5 to 2 times MIC up to 1000 secs by DiSC3-5 dye-based fluorescence assay; assay type: subcellular; conditions: time sec <=1000
Cell membrane [33] = test: Induction of cytoplasmic membrane depolarization in Staphylococcus aureus ATCC 29213 at 0.5 to 2 times MIC up to 1000 secs by DiSC3-5 dye-based fluorescence assay; assay type: subcellular; conditions: time sec <=1000
Cell membrane [34] = test: Induction of membrane permeabilization in Escherichia coli ATCC 25922 after 1 hr by PI fluorescence staining-based confocal microscopy analysis
Cell membrane [35] = test: Induction of membrane in permeabilization Staphylococcus aureus ATCC 29213 after 1 hr by FITC/PI fluorescence staining-based confocal microscopy analysis
Cell membrane [36] = test: Induction of structural changes in membrane of Escherichia coli ATCC 25922 assessed as cytoplasmic membrane separation at 1 times MIC after 1 hr by transmission electron microscopy; assay type: subcellular
Cell membrane [37] = test: Induction of structural changes in membrane of Escherichia coli ATCC 25922 assessed as membrane rupture at 1 times MIC after 1 hr by transmission electron microscopy; assay type: subcellular
Cell membrane [38] = test: Induction of structural changes in membrane of Staphylococcus aureus ATCC 29213 assessed as cytoplasmic leakage at 1 times MIC after 1 hr by transmission electron microscopy

## CC[C@H](C)[C@H](N)C(=O)N[C@H](C(=O)N[C@H](C(=O)N[C@@H](CS)C(=O)N[C@@H](CCCNC(=N)N)C(=O)N[C@@H](CCCCN)C(=O)N1CCC[C@H]1C(=O)N[C@H](C(=O)N[C@H](C(=O)N[C@@H](CS)C(=O)N[C@@H](CCCNC(=N)N)C(=O)N[C@@H](CCCCN)C(=O)N1CCC[C@H]1C(=O)N[C@H](C(=O)N[C@H](C(=O)N[C@@H](CS)C(=O)N[C@@H](CCCNC(=N)N)C(=O)N[C@@H](CCCCN)C(=O)N1CCC[C@H]1C(=O)N[C@H](C(=O)N[C@H](C(=O)N[C@@H](CS)C(=O)N[C@@H](CCCNC(=N)N)C(=O)N[C@@H](CCCCN)C(=O)N1CCC[C@H]1C(=O)N[C@H](C(=O)N[C@H](C(=O)N[C@H](C(N)=O)[C@@H](C)CC)[C@@H](C)CC)[C@@H](C)CC)[C@@H](C)CC)[C@@H](C)CC)[C@@H](C)CC)[C@@H](C)CC)[C@@H](C)CC)[C@@H](C)CC)[C@@H](C)CC)[C@@H](C)CC (H-IIICRKPIICRKPIICRKPIICRKPIII-NH2)
[1]
  selectivity ratio: 28.5
[2]
  selectivity ratio: 28.5
[3]
  selectivity ratio: 57
[4]
  selectivity ratio: 57
[5]
  selectivity ratio: 57
Cell membrane [6]
  Activity: Active
Cell membrane [7]
  Activity: Dose-dependent effect
Staphylococcus aureus [8]
  MIC: 4 µM (≈ 13.3 µg/mL)
[9]
  hemolysis at up to 128 µM: < 5%
[10]
  viability at 128 µM: > 90%
Escherichia coli [11]
  MIC: 4 µM
Escherichia coli [12]
  MIC: 4 µM
Escherichia coli [13]
  MIC: 8 µM
Staphylococcus aureus [14]
  MIC: 8 µM
Staphylococcus aureus [15]
  MIC: 16 µM
[16]
  Stabilty: Stable
Escherichia coli [17]
  Activity: Active
Escherichia coli [18]
  Activity: Active
[19]
  Activity: Non-Toxic
[20]
  Activity: Non-Toxic
[21]
  Activity: Non-Toxic
[22]
  Activity: Non-Toxic
Escherichia coli [23]
  Activity: 5.38 log10CFU/g
Escherichia coli [24]
  Activity: Active
Escherichia coli [25]
  Activity: Active
Escherichia coli [26]
  Activity: Active
Escherichia coli [27]
  Activity: Active
RAW264.7
  Activity: Dose-dependent effect
[28]
  Stabilty: Stable
[29]
  Stabilty: Stable
[30]
  Stabilty: Stable
Lipopolysaccharide (LPS)
  Activity: Dose-dependent effect
Cell membrane [31]
  Activity: Dose-dependent effect
Cell membrane [32]
  Activity: Active
Cell membrane [33]
  Activity: Active
Cell membrane [34]
  Activity: Active
Cell membrane [35]
  Activity: Active
Cell membrane [36]
  Activity: Active
Cell membrane [37]
  Activity: Active
Cell membrane [38]
  Activity: Active
